We go through 13 compounds from patent publication US8324186B2, “4-azetidinyl-1-heteroatom linked-cyclohexane antagonists of CCR2” (Janssen Pharmaceutica N.V., priority 2009, dated 2012).

Molecules are shown by their SMILES.

T1 sequence (P41597 whole entry): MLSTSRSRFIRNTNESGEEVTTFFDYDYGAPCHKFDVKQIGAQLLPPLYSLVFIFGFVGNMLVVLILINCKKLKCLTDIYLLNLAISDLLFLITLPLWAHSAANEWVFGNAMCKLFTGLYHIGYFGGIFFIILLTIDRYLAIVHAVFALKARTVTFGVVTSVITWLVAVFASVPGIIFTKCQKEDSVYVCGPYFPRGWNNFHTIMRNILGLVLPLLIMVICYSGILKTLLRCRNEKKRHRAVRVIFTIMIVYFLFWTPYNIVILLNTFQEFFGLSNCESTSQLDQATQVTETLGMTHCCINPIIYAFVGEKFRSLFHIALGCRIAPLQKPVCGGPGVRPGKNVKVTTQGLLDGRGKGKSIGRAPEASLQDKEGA

This experiment has as its target T1, CCR2 (Homo sapiens, UniProt P41597).
T1 construct: host or cells: THP-1 human monocytic cells
As to the kind of experiment: MCP-1 Receptor Binding Assay in THP-1 Cells (125I-MCP-1 displacement). To be noted: 0.5 nM 125I labeled MCP-1, 2 hours at 30° C., read-out: CCR2 Binding, Inhibition of MCP-1 Binding IC50. As to the method: Compounds of the invention were subjected to various representative biological tests. The results of these tests are intended to illustrate the invention in a non-limiting fashion. MCP-1 Receptor Binding Assay in THP-1 Cells
Human monocytic cell line THP-1 cells were obtained from American Type Culture Collection (Manassas, Va., USA). The THP-1 cells were grown in RPMI-1640 (RPMI: Roswell Park Memorial Institute Medium-cell culture growth media) supplemented with 10% fetal bovine serum in a humidified 5% CO2 atmosphere at 37° C. The cell density was maintained […].
THP-1 (cells were incubated with 0.5 nM ^125I labeled MCP-1 (Perkin-Elmer Life Sciences, Inc. Boston, Mass.) in the presence of varying concentrations of either unlabeled MCP-1 (R & D Systems, Minneapolis, Minn.) or test compound for 2 hours at 30° C. in a 96 well plate. Cells were then harvested onto a filter plate, dried, and 20 μL of Microscint 20 was added to each well. Plates were counted in a TopCount NXT, Microplate Scintillation & Luminescence Counter (Perkin-Elmer Life Sciences, Inc. Boston, Mass.). Blank values (buffer only) were subtracted from all values and drug treated values were compared to vehicle treated values. 1 μM cold MCP-1 was used for nonspecific binding.
Table 1 lists IC50 values for inhibition of MCP-1 binding to CCR2 obtained for test compounds of the invention. Where an IC50 value was not obtained for a particular compound, the percent inhibition is provided at a test concentration of 25 μM.
For `C#Cc1ccc(=O)n(C2CCC(N3CC(NC(=O)CNC(=O)c4cccc(C(F)(F)F)c4)C3)CC2)c1` (stereo not shown) [Example 9, N-({1-[4-(5-Ethynyl-2-oxo-2H-pyridin-1-yl)-cyclohexyl]-azetidin-3-ylcarbamoyl}-methyl)-3-trifluoromethyl-benzamide], the half-maximal inhibitory concentration (IC50) worked out at 1600 nM.

Take `N#Cc1ccc(=O)n(C2CCC(N3CC(NC(=O)CNC(=O)c4cccc(C(F)(F)F)c4)C3)CC2)c1` (stereo not shown) [Example 10, N-({1-[4-(5-Cyano-2-oxo-2H-pyridin-1-yl)-cyclohexyl]-azetidin-3-ylcarbamoyl}-methyl)-3-trifluoromethyl-benzamide]: the half-inhibitory concentration (IC50) was 1000 nM.

With `Cc1ccc(=O)n(C2CCC(N3CC(NC(=O)CNC(=O)c4cccc(C(F)(F)F)c4)C3)CC2)c1` (stereo not shown) [Example 11, N-({1-[4-(5-Methyl-2-oxo-2H-pyridin-1-yl)-cyclohexyl]-azetidin-3-ylcarbamoyl}-methyl)-3-trifluoromethyl-benzamide], the IC50 is 280 nM.

On to `COc1cccnc1OC1CCC(N2CC(NC(=O)CNC(=O)c3cccc(C(F)(F)F)c3)C2)CC1` (stereo not shown) [Example 14, N-({1-[4-(3-Methoxy-pyridin-2-yloxy)-cyclohexyl]-azetidin-3-ylcarbamoyl}-methyl)-3-trifluoromethyl-benzamide], for which the IC50 came to 280 nM.

`O=C(CNC(=O)c1cccc(C(F)(F)F)c1)NC1CN(C2CCC(n3ccc(=O)cc3)CC2)C1` (stereo not shown) [Example 16, N-({1-[4-(4-Oxo-4H-pyridin-1-yl)-cyclohexyl]-azetidin-3-ylcarbamoyl}-methyl)-3-trifluoromethyl-benzamide]: the concentration for half-maximal inhibition (IC50) came out at 7100 nM.

With `Cc1ccnc(OC2CCC(N3CC(NC(=O)CNC(=O)c4cccc(C(F)(F)F)c4)C3)CC2)c1` (stereo not shown) [Example 19, N-({1-[4-(4-Methyl-pyridin-2-yloxy)-cyclohexyl]-azetidin-3-ylcarbamoyl}-methyl)-3-trifluoromethyl-benzamide], the IC50 came to 66 nM.

Turning to `Cc1ccn(C2CCC(N3CC(NC(=O)CNC(=O)c4cccc(C(F)(F)F)c4)C3)CC2)c(=O)c1` (stereo not shown) [Example 20, N-({1-[4-(4-Methyl-2-oxo-2H-pyridin-1-yl)-cyclohexyl]-azetidin-3-ylcarbamoyl}-methyl)-3-trifluoromethyl-benzamide], the IC50 was found to be 110 nM.

Take `O=C(CNC(=O)c1cccc(C(F)(F)F)c1)NC1CN(C2CCC(Oc3cccnn3)CC2)C1` (stereo not shown) [Example 23, N-({1-[4-(Pyridazin-3-yloxy)-cyclohexyl]-azetidin-3-ylcarbamoyl}-methyl)-3-trifluoromethyl-benzamide]: the IC50 is 410 nM.

On to `O=C(CNC(=O)c1cccc(C(F)(F)F)c1)NC1CN(C2CCC(n3cc(I)cn3)CC2)C1` (stereo not shown) [Example 28, N-({1-[4-(4-Iodo-pyrazol-1-yl)-cyclohexyl]-azetidin-3-ylcarbamoyl}-methyl)-3-trifluoromethyl-benzamide], for which the IC50 was 110 nM.

As for `O=C(CNC(=O)c1cccc(C(F)(F)F)c1)NC1CN(C2CCC(Oc3ccc4c(c3)OCO4)CC2)C1` (stereo not shown) [Example 33, N-({1-[4-(Benzo[1,3]dioxol-5-yloxy)-cyclohexyl]-azetidin-3-ylcarbamoyl}-methyl)-3-trifluoromethyl-benzamide], the IC50 came out at 410 nM.

On to `O=C(CNC(=O)c1cccc(C(F)(F)F)c1)NC1CN(C2CCC(NC(=O)c3ccc4c(c3)OCO4)CC2)C1` (stereo not shown) [Example 35, Benzo[1,3]dioxole-5-carboxylic acid (4-{3-[2-(3-trifluoromethyl-benzoylamino)-acetylamino]-azetidin-1-yl}-cyclohexyl)-amide], for which the IC50 worked out at 430 nM.

In the case of `O=C(CNC(=O)c1cccc(C(F)(F)F)c1)NC1CN(C2CCC(NC(=O)Nc3ccc4c(c3)OCO4)CC2)C1` (stereo not shown) [Example 36, N-({1-[4-(3-Benzo[1,3]dioxol-5-yl-ureido)-cyclohexyl]-azetidin-3-ylcarbamoyl}-methyl)-3-trifluoromethyl-benzamide], the IC50 stood at 1500 nM.

As for `Cc1ccc(C)n1C1CCC(N2CC(NC(=O)CNC(=O)c3cccc(C(F)(F)F)c3)C2)CC1` (stereo not shown) [Example 37, N-({1-[4-(2,5-Dimethyl-pyrrol-1-yl)-cyclohexyl]-azetidin-3-ylcarbamoyl}-methyl)-3-trifluoromethyl-benzamide], the IC50 was found to be 9000 nM.

Broadly, the IC50 is the concentration that inhibits the measured activity by half.
